Reference: patent US20040023861A1, “Cysteinyl leukotriene receptor 2 (cysl t2)” (priority 2000, published 2004)

What was measured:
HIPHUM0000007 = target: T1, HIPHUM0000007 (Homo sapiens, UniProt Q9NS75); test: Antagonist activity against 20 nM LTD4 (NFAT luciferase reporter gene assay and FLIPR assay) at HIPHUM0000007; assay type: cell-based; conditions: concentration dependent inhibition of 20 nM LTD4; reporter gene and FLIPR assays
T1 construct: expressed in transfected cells; host or cells: CHO cells with stably integrated NFAT-luciferase reporter (CHONFAT)
T1 sequence (Q9NS75 1-346): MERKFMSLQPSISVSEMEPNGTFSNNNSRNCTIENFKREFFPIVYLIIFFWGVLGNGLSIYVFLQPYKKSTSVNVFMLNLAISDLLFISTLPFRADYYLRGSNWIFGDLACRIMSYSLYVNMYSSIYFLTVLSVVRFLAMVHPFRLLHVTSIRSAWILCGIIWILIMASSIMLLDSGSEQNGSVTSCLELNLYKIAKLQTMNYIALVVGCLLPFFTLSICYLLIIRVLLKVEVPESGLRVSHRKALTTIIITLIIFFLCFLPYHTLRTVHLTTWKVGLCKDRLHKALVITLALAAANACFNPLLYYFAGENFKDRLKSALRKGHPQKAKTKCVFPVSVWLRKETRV

CysLT1 = target: T2, CysLT1 (Homo sapiens, UniProt Q9Y271); test: Antagonist activity against 20 nM LTD4 (NFAT luciferase reporter gene assay and FLIPR assay) at CysLT1; assay type: cell-based; conditions: concentration dependent inhibition of 20 nM LTD4; reporter gene and FLIPR assays
T2 construct: expressed in transfected cells; host or cells: CHO cells with stably integrated NFAT-luciferase reporter (CHONFAT)
T2 sequence (Q9Y271 1-337): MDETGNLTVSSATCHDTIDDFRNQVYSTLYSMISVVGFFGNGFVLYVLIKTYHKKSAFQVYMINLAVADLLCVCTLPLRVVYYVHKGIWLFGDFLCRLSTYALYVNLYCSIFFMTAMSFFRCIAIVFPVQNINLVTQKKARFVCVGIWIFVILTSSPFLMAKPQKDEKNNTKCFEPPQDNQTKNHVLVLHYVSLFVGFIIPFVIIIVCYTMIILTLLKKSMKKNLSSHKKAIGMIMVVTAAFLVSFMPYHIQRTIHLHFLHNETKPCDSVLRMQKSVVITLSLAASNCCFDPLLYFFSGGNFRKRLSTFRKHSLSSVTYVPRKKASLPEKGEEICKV

anesthetized rats = test: Effect of LTD4 on hemodynamics and ECG parameters in anesthetized rats; assay type: in vivo
Description: Adult male wistar rats (270-300 g) were used. On arrival in the animal care unit, rats were housed with free access to food and water. Room temperature (19-20° C.), relative humidity (55-60%) and light (switched on 7:00am-7:00pm) were maintained constant. An adaptation period of at least 6 days was respected before experimentation.
Aninals (n=3-4) were anesthetized by administration of pentobarbital (50/60 mg/kg, i.v.). Then, animals were placed on a heatcd (36° C.) operating table and ventilated with room air (Harvard respirator, 50-52 str/min, 7 ml/kg tidal volume). Systemic arterial blood pressure was monitored routinely from the left carotid artery (P23XL, Gould). Body temperature was controlled with a thermistor probe (Digi-sense, Cole-Parmer) and maintained within physiological range throughout the experiment by heating when necessary. A Lead 11 ECG was recorded via needle electrodes to evaluate ECG intervals and heart rate and a corrected QT interval by linear regression (QTL) was calculated according to Todt(13). All parameters were monitored on a Gould thermal array polyrecorder.
The volume of injection was normalized to 1 ml/kg. In rats receiving CysLT1 antagonists as pretreatment, the compounds were previously dissolved in ethanol (2% final concentration) or distilled water and mixed in encapsin 6% for intragastric afministration (single dose of 3 μmol/kg-10 ml/kg total volume).
Results were expressed as mean±SEM Hemodynamic and electrocardiographic variables were compared using Anova followed by multiple comparisons tests (Newmam Keuls or Tukey's test as appropriate). Values of p <0.05 were considered significant.

CCCCC/C=C\C\C=C/C=C/C=C/[C@@H](Sc1ccc(C(=O)O)cc1)[C@@H](O)CCCC(=O)O [BayU9773]
antagonist activity at HIPHUM0000007 (HIPHUM0000007): low potency | antagonist activity at CysLT1 (CysLT1): low potency

CCCCC/C=C\C\C=C/C=C/C=C/[C@@H](SC[C@H](N)C(=O)NCC(=O)O)[C@@H](O)CCCC(=O)O [LTD4]
effect on blood pressure (anesthetized rats; LTD4 i.v. injection 20, 40 and 100 nmol/kg, anesthetized rats): affected blood pressure in a dose-dependent manner | reduction in heart rate (anesthetized rats; bolus intravenous administration of LTD4, anesthetized rats): 20-30% | rhythm disturbances (arrhythmias) (anesthetized rats; repeated administration of LTD4, doses in the range of 40 to 60 nmol/kg, anaesthetised rats): induced marked rhythm disturbances

CN(C)C(=O)CCSC(SCCC(=O)O)c1cccc(/C=C/c2ccc3ccc(Cl)cc3n2)c1 (stereo not drawn) [MK571]
effect of CysLT1 antagonist on LTD4 response on blood pressure (anesthetized rats; antagonist 3 μmol/kg oral 10 min or 0.3 μmol/kg i.v. 5 min before LTD4 i.v., anesthetized rats): modest partial inhibition | effect of pretreatment on LTD4-induced reduction in heart rate (anesthetized rats; pretreatment with CysLT1 antagonist before LTD4 i.v., anesthetized rats): not significantly altered

CC(C)(O)c1ccccc1CC[C@@H](SCC1(CC(=O)O)CC1)c1cccc(/C=C/c2ccc3ccc(Cl)cc3n2)c1 [Montelukast]
antagonist activity at HIPHUM0000007 (HIPHUM0000007): inactive

COc1cc(C(=O)NS(=O)(=O)c2ccccc2C)ccc1Cc1cn(C)c2ccc(NC(=O)OC3CCCC3)cc12 [Zafirlukast]
antagonist activity at CysLT1 (CysLT1): acted as antagonists
